Counter-ions that a name gives are not always drawn.
biological target: T1, Human CCR3 (Homo sapiens, UniProt P51677); experiment: Receptor binding assay (RBA), [125I]-eotaxin; conditions: human CCR3-transformed K562 cells, 0.1 nM [125I]-eotaxin; compounds of about 40 to 90% purity; read-out: Activity grade RBA (IC50 class)
T1 construct: The cloned CCR3 cDNA was constructed with pcDNA3 vector and transfected into a IC562 cell line; expressed in transfected cells
T1 sequence (P51677 1-355): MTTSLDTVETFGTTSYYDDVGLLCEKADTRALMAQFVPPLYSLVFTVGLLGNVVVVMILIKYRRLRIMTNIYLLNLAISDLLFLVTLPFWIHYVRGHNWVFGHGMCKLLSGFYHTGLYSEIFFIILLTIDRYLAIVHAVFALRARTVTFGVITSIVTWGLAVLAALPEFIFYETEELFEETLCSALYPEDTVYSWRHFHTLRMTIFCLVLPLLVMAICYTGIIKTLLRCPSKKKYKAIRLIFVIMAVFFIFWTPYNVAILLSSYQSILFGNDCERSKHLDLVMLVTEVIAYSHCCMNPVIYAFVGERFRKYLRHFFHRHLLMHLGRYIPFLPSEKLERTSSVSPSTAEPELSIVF
Experimental: [Determination of IC50 Values of Compounds in Receptor Binding Assay]
• Human CCR3-transformed K562 cells were used. The cloned CCR3 cDNA was constructed with pcDNA3 vector and transfected into a IC562 cell line. The human CCR3-transformed K562 cells were maintained in RPMI-1640 (Cat.#22400-089, Life Technologies) supplemented with 10% FCS (Cat.#A-1115-L, Hyclone), 55 μM 2-mercaptoethanol (Cat.#21985-023, Life Technologies), 1 mM sodium pyruvate (Cat.#11360-070, Life Technologies), 100 units/ml of penicillin G and 100 μg/ml of streptomycin (Cat.#15140-122, Life Technologies), and 0.4 mg/ml of Geneticin (Cat.#10131-035, Life Technologies)(hereinafter called “culture medium”). Before the receptor binding assay, cells were pretreated with 5 mM sodium butyrate (Cat.#193-01522, Wako)-containing the culture medium (2×10^5 cells/ml) for 20-24 hours to increase the expression of CCR3. (2) Receptor Binding Assay (RBA) • Butyrate-pretreated cells, suspended in binding buffer (25 mM HEPES pH 7.6, 1 mM CaCl2, 5 mM MgCl2, 0.5% BSA, 0.1% NaN3) at a cell density of 2×10^6 cells/ml, were added into 60 μl/well in the 96-well round bottom polypropylene plate (Cat.#3365, Costar). Compounds, diluted with the binding buffer (4-times higher concentration of the final concentration), were added into 30 μl/well in the polypropylene plate. [^125I]-labeled human eotaxin (Cat.#IM290, Amersham Pharmacia Biotech), diluted with the binding buffer at the concentration of 0.4 nM (final concentration; 0.1 nM), was added into 30 μl/well in the polypropylene plate. Total 120 μl/well of binding reaction mixture (60 μl/well of cell suspension, 30 μl/well of compound solution, and 30 μl/well of [^125I]-labeled eotaxin) were incubated in the polypropylene plate for 1 hour at room temperature after the incubation, 100 μl/well of the reaction mixture was transferred to a filtration plate (Cat.#MAFB-N0B, Millipore), and washed with the washing buffer (25 mM HEPES pH 7.6, 1 mM CaCl2, 5 mM MgCl2, 0.5% BSA, 0.1% NaN3, 0.5 M NaCl) twice. The 96-well filtration plate was pretreated with 100 μl/well of 0.5% polyethylenimine (Cat.#P-3143, Sigma) for 2-4 hours at room temperature and washed with the washing buffer twice before use. The non-specific binding was determined by parallel incubation in the presence of 500 nM of non-labeled eotaxin (Cat.#23209, Genzyme Techne). The radioactivities remained on the filter were measured by liquid scintillation counter (TopCount™, Packard) after an addition of 45 μl/well of scintillant (Microscint20, Cat.#6013621, Packard). The inhibition percent at each concentration of compound was calculated, and IC50 values were determined from the inhibition curve. [Determination of IC50 Values of Compounds in Calcium Mobilization Assay] (IC50 Ca2+) (1) Cell • Human CCR3-transformed K562 cells were used. The human CCR3-transformed K562 cells were maintained in RPMI-1640 supplemented with 10% FCS, 55 μM 2-mercaptoethanol (Cat.#21985-023, Life Technologies), 1 mM sodium pyruvate, 100 units/ml of penicillin G and 100 μg/ml of streptomycin and 0.4 mg/ml of Geneticin. Before the calcium mobilization assay, cells were pretreated with 5 mM sodium butyrate-containing the culture medium (2×10^5 cells/ml) for 20-24 hours to increase the expression of CCR3. (2) Calcium Mobilization Assay • Butyrate-pretreated cells were loaded with Fluo-3AM (Cat.#F-1242, Molecular Probes) in loading buffer (Hanks' solution Cat.#05906 Nissui, 20 mM HEPES pH 7.6, 0.1% BSA, 1 mM probenecid Cat.#P-8761 Sigma, 1 μM Fluo-3AM, 0.01% pluronic F-127 Cat.#P-6866 Molecular Probes) at a cell density of 1×10^7 cells/ml. Then, cells were washed with calcium assay buffer (Hanks' solution Cat.#05906 Nissui, 20 mM HEPES pH 7.6, 0.1% BSA, 1 mM Probenecid Cat.#P-8761 Sigma). The cell suspension (3.3×10^6 cells/ml) was added into 60 μl/well in the 96-well clear bottom black plate (Cat.#3904, Costar). […]

SMILES | IC50 [µM]
Cc1cc(C)cc(Oc2ccccc2S(=O)(=O)N2CCNCC2)c1.Cl [Example 1-41] | > 10
CN(CCN1CCCCC1)S(=O)(=O)c1cc([N+](=O)[O-])ccc1Sc1cc(Cl)cc(Cl)c1 [Example 26-1, 2-[(3,5-dichlorophenyl)sulfanyl]-N-methyl-5-nitro-N-[2-(1-piperidinyl)ethyl]benzenesulfonamide] | < 1
Cc1cc(C)cc(Oc2ccc([N+](=O)[O-])cc2S(=O)(=O)N2CCN(CCOCCO)CC2)c1 [Example 1-89] | < 1
Cc1cc(C)cc(Oc2ccc([N+](=O)[O-])cc2S(=O)(=O)N2CCNCC2)c1 [Example 1-2, 1-{[2-(3,5-dimethylphenoxy)-5-nitrophenyl]sulfonyl}piperazine hydrochloride] | < 1
Cl.O=[N+]([O-])c1ccc(Oc2cc(Cl)cc(Cl)c2)c(S(=O)(=O)N2CCNCC2)c1 [Example 1-33] | < 1
CC(C)(C)c1ccc(Oc2ccc([N+](=O)[O-])cc2S(=O)(=O)N2CCNCC2)cc1 [Example 1-21] | > 10
Cc1cc(C)cc(Oc2ccc(C#N)cc2S(=O)(=O)N2CCNCC2)c1 [Example 9-1, 4-(3,5-dimethylphenoxy)-3-(1-piperazinylsulfonyl)benzonitrile hydrochloride] | < 1
Cc1cc(C)cc(Oc2ccc(Cl)cc2S(=O)(=O)N2CCNCC2)c1 [Example 5-2, 1-{[5-chloro-2-(3,5-dimethylphenoxy)phenyl]sulfonyl}piperazine hydrochloride] | < 1
Cl.O=[N+]([O-])c1ccc(Oc2cc(Cl)cc(Cl)c2)c(S(=O)(=O)N2CCCNCC2)c1 [Example 1-91] | < 1
COc1ccc(Oc2ccc([N+](=O)[O-])cc2S(=O)(=O)N2CCNCC2)cc1 [Example 1-19] | > 10
Cc1cc(C)cc(Oc2cc3cc[nH]c3cc2S(=O)(=O)N2CCNCC2)c1 [Example 11-1, 5-(3,5-dimethylphenoxy)-6-(1-piperazinylsulfonyl)-1H-indole trifluoroacetate] | > 10
Cl.O=[N+]([O-])c1ccc(Oc2cc(Cl)cc(Cl)c2Cl)c(S(=O)(=O)N2CCNCC2)c1 [Example 1-86] | < 1
COc1ccccc1Oc1ccc([N+](=O)[O-])cc1S(=O)(=O)N1CCNCC1.Cl [Example 1-27] | < 1
Cc1cc(C)cc(Oc2cc(C(F)(F)F)ccc2S(=O)(=O)N2CCNCC2)c1.Cl [Example 1-46] | > 10
COc1cc(OC)cc(Oc2ccc([N+](=O)[O-])cc2S(=O)(=O)N2CCNCC2)c1.Cl [Example 1-5] | > 10
Cc1cc(C)cc(Oc2ccc(Br)cc2S(=O)(=O)N2CCNCC2)c1 [Example 8-1, 1-{[5-bromo-2-(3,5-dimethylphenoxy)phenyl]sulfonyl}piperazine hydrochloride] | < 1
Cc1cc(C)cc(Oc2ccc([N+](=O)[O-])cc2S(=O)(=O)N2CC(C)NCC2C)c1.Cl (stereo not shown) [Example 1-54] | < 1
Cc1cc(C)cc(Oc2ccc(NC(=O)Cc3ccccc3)cc2S(=O)(=O)N2CCNCC2)c1 [Example 7-1, N-[4-(3,5-dimethylphenoxy)-3-(1-piperazinylsulfonyl)phenyl]-2-phenylacetamide] | > 10
Cl.O=S(=O)(c1cc(Cl)ccc1Oc1cc(Cl)cc(Cl)c1)N1CCNCC1 [Example 1-56] | < 1

SMILES | IC50 [µM]
Cl.O=S(=O)(c1cc(Br)ccc1Oc1cc(Cl)cc(Cl)c1)N1CCNCC1 [Example 1-57] | < 1
Cl.N[C@H]1CCN(S(=O)(=O)c2cc([N+](=O)[O-])ccc2Oc2cc(Cl)cc(Cl)c2)C1 [Example 1-100] | < 1
Cc1ccc(C)c(Oc2ccc([N+](=O)[O-])cc2S(=O)(=O)N2CCNCC2)c1C.Cl [Example 1-61] | 1 to 10
CC(=O)c1ccccc1Oc1ccc([N+](=O)[O-])cc1S(=O)(=O)N1CCNCC1.Cl [Example 1-30] | > 10
O=[N+]([O-])c1ccc(Oc2ccccc2)c(S(=O)(=O)N2CCNCC2)c1 [Example 1-18] | 1 to 10
Cc1cc(C)cc(Oc2cc(C)c([N+](=O)[O-])cc2S(=O)(=O)N2CCNCC2)c1.Cl [Example 1-44] | 1 to 10
O=[N+]([O-])c1ccc(Oc2cccc(F)c2)c(S(=O)(=O)N2CCNCC2)c1 [Example 1-25] | < 1
COc1cc(C)cc(Oc2ccc([N+](=O)[O-])cc2S(=O)(=O)N2CCNCC2)c1.Cl [Example 1-37] | < 1
Cl.O=[N+]([O-])c1ccc(Oc2cc(F)cc(F)c2)c(S(=O)(=O)N2CCNCC2)c1 [Example 1-4] | < 1
Cl.O=[N+]([O-])c1ccc(Oc2c(F)c(F)cc(F)c2F)c(S(=O)(=O)N2CCNCC2)c1 [Example 1-74] | < 1
Cc1cc(C)cc(Oc2ccc([N+](=O)[O-])cc2S(=O)(=O)N2CC(C)NC(C)C2)c1 (stereo not shown) [Example 1-92] | < 1
Cc1cc(Oc2ccc([N+](=O)[O-])cc2S(=O)(=O)N2CCNCC2)cc(C(C)C)c1.Cl [Example 1-8] | < 1
Cc1ccc(Oc2ccc([N+](=O)[O-])cc2S(=O)(=O)N2CCNCC2)cc1C.Cl [Example 1-63] | 1 to 10
Cl.O=[N+]([O-])c1ccc(Oc2cc(Cl)cc(Cl)c2F)c(S(=O)(=O)N2CCNCC2)c1 [Example 1-77] | < 1
O=C(O)C1CNCCN1S(=O)(=O)c1cc([N+](=O)[O-])ccc1Oc1cc(Cl)cc(Cl)c1 (stereo not shown) [Example 1-87] | < 1
Cc1cc(C)cc(Oc2ccc(N)cc2S(=O)(=O)N2CCN(C(=O)OC(C)(C)C)CC2)c1 [Example 5-1, tert-butyl 4-{[5-amino-2-(3,5-dimethyl-phenoxy)phenyl]sulfonyl}-1-piperazinecarboxylate] | > 10
Cc1cccc(Oc2ccc([N+](=O)[O-])cc2S(=O)(=O)N2CCNCC2)c1C.Cl [Example 1-62] | < 1
Cl.O=[N+]([O-])c1ccc(Oc2cccc(Br)c2)c(S(=O)(=O)N2CCNCC2)c1 [Example 1-39] | < 1

From patent US8242118B2, “Arylsulfonamide derivatives for use as CCR3 antagonists in the treatment of inflammatory and immunological disorders” (Axikin Pharmaceuticals Inc., priority 2001, dated 2012)
